For data set [1], the target named is T1, Solute carrier organic anion transporter family member 1B3 (Homo sapiens, UniProt Q9NPD5).
T1 sequence (Q9NPD5 whole entry): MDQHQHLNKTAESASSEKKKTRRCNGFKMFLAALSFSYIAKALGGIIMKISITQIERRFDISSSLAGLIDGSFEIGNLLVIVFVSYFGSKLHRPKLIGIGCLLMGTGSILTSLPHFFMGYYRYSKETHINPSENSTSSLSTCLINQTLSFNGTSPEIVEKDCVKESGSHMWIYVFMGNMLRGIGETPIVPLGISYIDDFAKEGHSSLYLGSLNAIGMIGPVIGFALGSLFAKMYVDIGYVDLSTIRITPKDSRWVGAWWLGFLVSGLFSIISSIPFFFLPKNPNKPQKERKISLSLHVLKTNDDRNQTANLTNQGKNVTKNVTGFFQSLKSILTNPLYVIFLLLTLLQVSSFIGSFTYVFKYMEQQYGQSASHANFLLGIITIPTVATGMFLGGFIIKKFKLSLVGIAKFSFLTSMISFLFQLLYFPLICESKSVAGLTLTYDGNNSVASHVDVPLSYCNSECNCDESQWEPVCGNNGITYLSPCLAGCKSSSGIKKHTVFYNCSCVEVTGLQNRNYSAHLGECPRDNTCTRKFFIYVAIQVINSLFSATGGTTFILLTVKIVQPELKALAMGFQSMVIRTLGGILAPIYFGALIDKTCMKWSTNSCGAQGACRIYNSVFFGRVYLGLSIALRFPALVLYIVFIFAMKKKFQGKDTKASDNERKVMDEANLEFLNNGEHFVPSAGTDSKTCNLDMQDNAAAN
To be noted: chinese hamster, cho, 10 µM.

Data set [2] deals with T2, Solute carrier organic anion transporter family member 1B1 (Homo sapiens, UniProt Q9Y6L6).
T2 sequence (Q9Y6L6 whole entry): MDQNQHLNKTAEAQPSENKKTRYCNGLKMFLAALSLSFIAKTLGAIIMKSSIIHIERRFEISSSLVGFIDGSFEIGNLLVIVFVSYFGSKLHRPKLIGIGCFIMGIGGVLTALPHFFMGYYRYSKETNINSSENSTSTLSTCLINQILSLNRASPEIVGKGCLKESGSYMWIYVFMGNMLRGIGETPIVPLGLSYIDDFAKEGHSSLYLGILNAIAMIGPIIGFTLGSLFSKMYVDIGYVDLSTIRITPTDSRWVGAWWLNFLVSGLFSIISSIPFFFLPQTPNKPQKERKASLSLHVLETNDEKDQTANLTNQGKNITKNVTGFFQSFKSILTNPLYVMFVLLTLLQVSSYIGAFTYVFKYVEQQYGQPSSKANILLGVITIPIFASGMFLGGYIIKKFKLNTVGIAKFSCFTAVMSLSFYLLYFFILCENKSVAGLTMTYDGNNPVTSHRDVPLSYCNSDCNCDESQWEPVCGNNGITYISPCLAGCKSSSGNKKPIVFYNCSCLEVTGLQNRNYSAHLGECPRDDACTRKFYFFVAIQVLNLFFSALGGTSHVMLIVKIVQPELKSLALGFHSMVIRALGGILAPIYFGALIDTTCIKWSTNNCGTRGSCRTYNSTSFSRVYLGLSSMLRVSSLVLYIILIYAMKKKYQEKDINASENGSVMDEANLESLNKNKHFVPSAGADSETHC
To be noted: chinese hamster, cho, 10 µM.

Molecules are shown by their SMILES.

One may read the residual activity as the signal under treatment as a percentage of the control signal. Turning to `CCCn1c(=O)c2[nH]c(C3CCCC3)nc2n(CCC)c1=O` [1,3-DIPROPYL-8-CYCLOPENTYLXANTHINE [DPCPX]], the residual activity is 117.3% in data set [1] and 264.1% in data set [2].

For the molecule `Cc1cc(O)c2c(c1O)C(=O)c1c(O)cc(C)c(O)c1C2=O` [1,4,5,8-TETRAHYDROXY-2,6-DIMETHYLANTHROQUINONE], the figures for the residual activity in data set [1] and in data set [2] were 105.2% and 102.7%, respectively.

Regarding `Clc1ccc(Cl)cc1` [1,4-DICHLOROBENZENE], the residual activity is listed as 96.49% in data set [1] and 99.98% in data set [2].

As to `NC1(C(=O)O)CCC1` [1-AMINOCYCLOBUTANE CARBOXYLIC ACID], the residual activity in data set [1] came to 95.93%; in data set [2], 131.1%.

As to `NC1(C(=O)O)CC1` [1-Aminocyclopropane carboxylic acid], the residual activity turned out to be 99.32% in data set [1] and 125.9% in data set [2].

On to `Cn1c(=O)[nH]c2nc[nH]c2c1=O` [1-METHYLXANTHINE], for which the values for the residual activity in data set [1] and in data set [2] were 96.5% and 102.1%, respectively.

On to `Cl.N=C(N)NC(=N)Nc1ccccc1` [1-PHENYLBIGUANIDE HYDROCHLORIDE], for which the figures for the residual activity in data set [1] and in data set [2] were 94.41% and 80.12%, respectively.

For the molecule `COc1ccc2c(c1OC)C(=O)O[C@H]2[C@H]1c2cc3c(cc2CCN1C)OCO3` [1R,9S-HYDRASTINE], the results for the residual activity in data set [1] and in data set [2] were 84.49% and 94.94%, respectively.

Take `O=C(/C=C/c1ccccc1)c1ccc(O[C@@H]2O[C@H](CO)[C@@H](O)[C@H](O)[C@H]2O)cc1O` [2',4'-DIHYDROXYCHALCONE 4'-GLUCOSIDE]: the residual activity in data set [1] was 107.4%; in data set [2] it was 99.51%.

For the molecule `O=C(/C=C(\O)c1ccccc1)c1ccccc1O` [2',beta-DIHYDROXYCHALCONE], the results for the residual activity in data set [1] and in data set [2] were 97.75% and 95.04%, respectively.

In the case of `COc1ccc(-c2coc3cc(O)ccc3c2=O)c(OC)c1` [2'-METHOXYFORMONETIN], the residual activity in data set [1] was determined as 83.66%; in data set [2] it was 74.56%.

For the molecule `COc1ccc(C(=O)c2ccc(O)cc2)c(O)c1O` [2,3,4'-TRIHYDROXY-4-METHOXYBENZOPHENONE], the residual activity was found to be 112.1% in data set [1] and 114.8% in data set [2].

On to `CCOc1ccc(C(=O)c2ccc(O)c(O)c2O)cc1` [2,3,4-TRIHYDROXY-4'-ETHOXYBENZOPHENONE], for which the residual activity in data set [1] worked out at 99.48%; in data set [2], 134.1%.

For `CCOc1ccc(C(=O)c2ccc(OC)c(O)c2O)cc1` [2,3-DIHYDROXY-4-METHOXY-4'-ETHOXYBENZOPHENONE], the residual activity was 102.2% in data set [1] and 172.8% in data set [2].

`O=C(O)c1cccc(O)c1O` [2,3-DIHYDROXYBENZOIC ACID]: the residual activity turned out to be 84.74% in data set [1] and 94.43% in data set [2].

`COC(=O)COc1cc(Cl)c(Cl)cc1Cl` [2,4,5-TRICHLOROPHENOXYACETIC ACID, METHYL ESTER]: the results for the residual activity in data set [1] and in data set [2] were 116.4% and 98.01%, respectively.

Regarding `O=C(O)COc1cc(Cl)c(Cl)cc1Cl` [2,4,5-TRICHLOROPHENOXYACETIC ACID], the values for the residual activity in data set [1] and in data set [2] were 96.75% and 95.54%, respectively.

As for `CC(=O)c1c(O)cc(O)cc1O` [2,4,6-TRIHYDROXYACETOPHENONE], the residual activity in data set [1] is recorded as 92.98%; in data set [2], 72.12%.

In the case of `COC(=O)COc1ccc(Cl)cc1Cl` [2,4-DICHLOROPHENOXYACETIC ACID, METHYL ESTER], the residual activity in data set [1] worked out at 110%; in data set [2], 116.2%.

With `O=C(O)COc1ccc(Cl)cc1Cl` [2,4-DICHLOROPHENOXYACETIC ACID], the results for the residual activity in data set [1] and in data set [2] were 104.1% and 111.6%, respectively.

Take `O=[N+]([O-])c1ccc(O)c([N+](=O)[O-])c1` [2,4-DINITROPHENOL]: the residual activity in data set [1] stood at 78.36%; in data set [2] it was 75.05%.
